Columns and labels:
Experiment in all cases: KinaseProfiler
Assay type in all cases: biochemical
Settings in all cases: 10 μM, ATP near Km
ALK = target: T1, ALK (Homo sapiens, UniProt Q9UM73)
T1 construct: purchased Millipore (KinaseProfiler service)
Method: (§1) A representative compound (Example 15) of the invention was tested for off-target kinase activity at a concentration of 10 μM by Millipore, Inc. in their KinaseProfiler™ service against all the kinases available in their full kinase panel. The compound was run in duplicate at a concentration of ATP near the Km for each individual kinase according to Millipore's specifications. The results are shown in Table B. Data are reported as percent of control (POC) and are the average of the two replicates.

CDK5/p35 = target: T2, CDK5/p35 (Homo sapiens, UniProt Q00535)
T2 construct: purchased Millipore, Inc. (KinaseProfiler service)
Method: as §1

ERK1 = target: T3, ERK1 (Homo sapiens, UniProt P27361)
T3 construct: purchased Millipore, Inc. (KinaseProfiler service)
Method: as §1

IGF-1R Activated = target: T4, IGF-1R Activated (Homo sapiens, UniProt P08069)
T4 construct: purchased Millipore, Inc. (KinaseProfiler service)
Method: as §1

PASK = target: T5, PASK (Homo sapiens, UniProt Q96RG2)
T5 construct: purchased Millipore, Inc. (KinaseProfiler service)
Method: as §1

EphA1 = target: T6, EphA1 (Homo sapiens, UniProt P21709)
T6 construct: purchased Millipore, Inc. (KinaseProfiler service)
Method: as §1

MST3 = target: T7, MST3 (Homo sapiens, UniProt Q9Y6E0)
T7 construct: purchased Millipore, Inc. (KinaseProfiler service)
Method: as §1

PAK6 = target: T8, PAK6 (Homo sapiens, UniProt Q9NQU5)
T8 construct: purchased Millipore, Inc. (KinaseProfiler service)
Method: as §1

CAMK4 = target: T9, CAMK4 (Homo sapiens, UniProt Q16566)
T9 construct: purchased Millipore (KinaseProfiler service)
Method: as §1

Bmx = target: T10, Bmx (Homo sapiens, UniProt P51813)
T10 construct: purchased Millipore (KinaseProfiler service)
Method: as §1

PKCzeta = target: T11, PKCzeta (Homo sapiens, UniProt Q05513)
T11 construct: purchased Millipore, Inc. (KinaseProfiler service)
Method: as §1

MuSK = target: T12, MuSK (Homo sapiens, UniProt O15146)
T12 construct: purchased Millipore, Inc. (KinaseProfiler service)
Method: as §1

Rsk4 = target: T13, Rsk4 (Homo sapiens, UniProt Q9UK32)
T13 construct: purchased Millipore, Inc. (KinaseProfiler service)
Method: as §1

TAK1 = target: T14, TAK1 (Homo sapiens, UniProt O43318)
T14 construct: purchased Millipore, Inc. (KinaseProfiler service)
Method: as §1

MLK1 = target: T15, MLK1 (Homo sapiens, UniProt P80192)
T15 construct: purchased Millipore, Inc. (KinaseProfiler service)
Method: as §1

MKK7beta = target: T16, MKK7beta (Homo sapiens, UniProt O14733)
T16 construct: purchased Millipore, Inc. (KinaseProfiler service)
Method: as §1

RIPK2 = target: T17, RIPK2 (Homo sapiens, UniProt O43353)
T17 construct: purchased Millipore, Inc. (KinaseProfiler service)
Method: as §1

NEK7 = target: T18, NEK7 (Homo sapiens, UniProt Q8TDX7)
T18 construct: purchased Millipore, Inc. (KinaseProfiler service)
Method: as §1

EphA4 = target: T19, EphA4 (Homo sapiens, UniProt P54764)
T19 construct: purchased Millipore, Inc. (KinaseProfiler service)
Method: as §1

CDK1/cyclinB = target: T20, CDK1/cyclinB (Homo sapiens, UniProt P06493)
T20 construct: purchased Millipore (KinaseProfiler service)
Method: as §1

Yes = target: T21, Yes (Homo sapiens, UniProt P07947)
T21 construct: purchased Millipore, Inc. (KinaseProfiler service)
Method: as §1

IR = target: T22, IR (Homo sapiens, UniProt P06213)
T22 construct: purchased Millipore, Inc. (KinaseProfiler service)
Method: as §1

IRAK4 = target: T23, IRAK4 (Homo sapiens, UniProt Q9NWZ3)
T23 construct: purchased Millipore, Inc. (KinaseProfiler service)
Method: as §1

PKCeta = target: T24, PKCeta (Homo sapiens, UniProt P24723)
T24 construct: purchased Millipore, Inc. (KinaseProfiler service)
Method: as §1

JNK3 = target: T25, JNK3 (Homo sapiens, UniProt P53779)
T25 construct: purchased Millipore, Inc. (KinaseProfiler service)
Method: as §1

eEF-2K = target: T26, eEF-2K (Homo sapiens, UniProt O00418)
T26 construct: purchased Millipore, Inc. (KinaseProfiler service)
Method: as §1

CK1delta = target: T27, CK1delta (Homo sapiens, UniProt P48730)
T27 construct: purchased Millipore, Inc. (KinaseProfiler service)
Method: as §1

PAK5 = target: T28, PAK5 (Homo sapiens, UniProt Q9P286)
T28 construct: purchased Millipore, Inc. (KinaseProfiler service)
Method: as §1

CDK3/cyclinE = target: T29, CDK3/cyclinE (Homo sapiens, UniProt Q00526)
T29 construct: purchased Millipore, Inc. (KinaseProfiler service)
Method: as §1

GRK7 = target: T30, GRK7 (Homo sapiens, UniProt Q8WTQ7)
T30 construct: purchased Millipore, Inc. (KinaseProfiler service)
Method: as §1

TNK2 = target: T31, TNK2 (Homo sapiens, UniProt Q07912)
T31 construct: purchased Millipore, Inc. (KinaseProfiler service)
Method: as §1

STK33 = target: T32, STK33 (Homo sapiens, UniProt Q9BYT3)
T32 construct: purchased Millipore, Inc. (KinaseProfiler service)
Method: as §1

BrSK2 = target: T33, BrSK2 (Homo sapiens, UniProt Q8IWQ3)
T33 construct: purchased Millipore (KinaseProfiler service)
Method: as §1

CDK2/cyclinE = target: T34, CDK2/cyclinE (Homo sapiens, UniProt P24941)
T34 construct: purchased Millipore, Inc. (KinaseProfiler service)
Method: as §1

IGF-1R = target: T35, IGF-1R (Homo sapiens, UniProt P08069)
T35 construct: purchased Millipore, Inc. (KinaseProfiler service)
Method: as §1

Lyn = target: T36, Lyn (Homo sapiens, UniProt P07948)
T36 construct: purchased Millipore, Inc. (KinaseProfiler service)
Method: as §1

PKCalpha = target: T37, PKCalpha (Homo sapiens, UniProt P17252)
T37 construct: purchased Millipore, Inc. (KinaseProfiler service)
Method: as §1

Flt3 = target: T38, Flt3 (Homo sapiens, UniProt P36888)
T38 construct: purchased Millipore, Inc. (KinaseProfiler service)
Method: as §1

CK1_y = tested on: CK1_y
Method: as §1

Pim-2 = target: T39, Pim-2 (Homo sapiens, UniProt Q9P1W9)
T39 construct: purchased Millipore, Inc. (KinaseProfiler service)
Method: as §1

CDK9/cyclinT1 = target: T40, CDK9/cyclinT1 (Homo sapiens, UniProt P50750)
T40 construct: purchased Millipore, Inc. (KinaseProfiler service)
Method: as §1

T20 sequence (P06493 whole entry): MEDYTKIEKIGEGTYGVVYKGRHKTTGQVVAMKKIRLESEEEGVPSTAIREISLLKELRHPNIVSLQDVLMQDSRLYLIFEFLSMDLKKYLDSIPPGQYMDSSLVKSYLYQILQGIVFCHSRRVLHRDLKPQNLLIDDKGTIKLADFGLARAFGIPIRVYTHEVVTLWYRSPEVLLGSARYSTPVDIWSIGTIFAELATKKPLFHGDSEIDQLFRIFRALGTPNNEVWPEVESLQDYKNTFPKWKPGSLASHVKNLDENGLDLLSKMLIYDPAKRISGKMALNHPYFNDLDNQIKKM
T20 sequence (P14635 whole entry partner): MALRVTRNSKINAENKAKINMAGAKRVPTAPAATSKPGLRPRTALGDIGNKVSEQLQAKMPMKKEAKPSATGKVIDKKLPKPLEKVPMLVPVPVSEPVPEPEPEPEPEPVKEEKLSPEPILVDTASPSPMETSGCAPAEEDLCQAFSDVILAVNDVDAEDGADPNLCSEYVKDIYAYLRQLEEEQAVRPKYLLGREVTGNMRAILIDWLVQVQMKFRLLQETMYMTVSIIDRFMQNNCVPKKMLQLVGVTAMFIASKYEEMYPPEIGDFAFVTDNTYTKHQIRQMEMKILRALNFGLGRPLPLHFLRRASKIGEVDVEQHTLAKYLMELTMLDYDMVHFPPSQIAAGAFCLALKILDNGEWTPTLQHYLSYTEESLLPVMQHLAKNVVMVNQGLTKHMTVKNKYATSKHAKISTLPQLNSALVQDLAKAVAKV
T38 sequence (P36888 27-993): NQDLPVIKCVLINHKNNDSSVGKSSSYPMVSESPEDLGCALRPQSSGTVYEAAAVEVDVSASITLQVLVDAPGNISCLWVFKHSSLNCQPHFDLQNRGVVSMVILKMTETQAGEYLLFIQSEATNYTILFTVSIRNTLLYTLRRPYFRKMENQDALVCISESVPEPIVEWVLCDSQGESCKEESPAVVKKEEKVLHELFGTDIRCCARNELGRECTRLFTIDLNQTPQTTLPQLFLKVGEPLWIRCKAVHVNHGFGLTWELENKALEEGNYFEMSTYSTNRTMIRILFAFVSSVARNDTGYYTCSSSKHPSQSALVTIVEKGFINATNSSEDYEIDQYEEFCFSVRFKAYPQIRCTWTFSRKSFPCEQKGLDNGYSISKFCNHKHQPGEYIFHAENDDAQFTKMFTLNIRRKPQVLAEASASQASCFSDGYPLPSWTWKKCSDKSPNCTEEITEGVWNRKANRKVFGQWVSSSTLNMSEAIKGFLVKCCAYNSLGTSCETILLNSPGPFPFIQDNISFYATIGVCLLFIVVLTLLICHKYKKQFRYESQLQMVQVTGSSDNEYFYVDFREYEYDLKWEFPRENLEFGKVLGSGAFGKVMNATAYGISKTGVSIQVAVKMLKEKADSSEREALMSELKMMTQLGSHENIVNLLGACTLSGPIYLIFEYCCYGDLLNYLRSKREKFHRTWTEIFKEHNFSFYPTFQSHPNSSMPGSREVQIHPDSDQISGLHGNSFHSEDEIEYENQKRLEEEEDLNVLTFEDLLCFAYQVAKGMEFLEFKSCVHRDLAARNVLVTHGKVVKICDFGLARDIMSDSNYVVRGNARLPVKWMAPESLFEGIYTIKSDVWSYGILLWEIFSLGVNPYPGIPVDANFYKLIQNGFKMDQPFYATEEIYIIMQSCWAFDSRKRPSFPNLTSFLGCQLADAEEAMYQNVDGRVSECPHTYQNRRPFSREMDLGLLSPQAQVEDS
T31 sequence (Q07912 whole entry): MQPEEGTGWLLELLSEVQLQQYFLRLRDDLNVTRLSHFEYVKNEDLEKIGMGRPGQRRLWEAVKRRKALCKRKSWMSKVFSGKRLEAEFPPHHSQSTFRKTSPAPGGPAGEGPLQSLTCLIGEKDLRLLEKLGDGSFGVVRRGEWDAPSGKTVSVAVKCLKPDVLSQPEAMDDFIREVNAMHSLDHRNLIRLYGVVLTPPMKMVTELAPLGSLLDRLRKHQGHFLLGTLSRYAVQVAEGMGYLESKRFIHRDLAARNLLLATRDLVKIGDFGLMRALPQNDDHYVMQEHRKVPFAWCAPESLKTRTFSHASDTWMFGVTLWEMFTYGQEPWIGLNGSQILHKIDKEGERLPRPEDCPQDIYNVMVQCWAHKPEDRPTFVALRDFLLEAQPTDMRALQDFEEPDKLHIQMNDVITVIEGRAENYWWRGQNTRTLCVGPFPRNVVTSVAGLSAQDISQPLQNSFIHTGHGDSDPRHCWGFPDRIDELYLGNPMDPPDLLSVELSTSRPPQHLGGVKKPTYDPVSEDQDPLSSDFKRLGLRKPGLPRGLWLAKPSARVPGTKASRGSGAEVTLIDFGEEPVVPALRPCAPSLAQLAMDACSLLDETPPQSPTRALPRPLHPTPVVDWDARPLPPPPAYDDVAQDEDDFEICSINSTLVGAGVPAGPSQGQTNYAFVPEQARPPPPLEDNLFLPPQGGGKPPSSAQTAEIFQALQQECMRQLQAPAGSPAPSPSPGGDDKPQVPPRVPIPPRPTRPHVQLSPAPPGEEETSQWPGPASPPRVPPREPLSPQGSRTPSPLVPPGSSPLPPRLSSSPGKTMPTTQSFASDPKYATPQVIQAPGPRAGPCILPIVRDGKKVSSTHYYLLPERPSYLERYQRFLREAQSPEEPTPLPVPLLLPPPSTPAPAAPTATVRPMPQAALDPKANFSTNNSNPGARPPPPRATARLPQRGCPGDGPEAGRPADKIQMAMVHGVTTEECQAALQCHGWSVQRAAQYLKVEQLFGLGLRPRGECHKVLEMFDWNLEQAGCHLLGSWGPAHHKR
T15 sequence (P80192 whole entry): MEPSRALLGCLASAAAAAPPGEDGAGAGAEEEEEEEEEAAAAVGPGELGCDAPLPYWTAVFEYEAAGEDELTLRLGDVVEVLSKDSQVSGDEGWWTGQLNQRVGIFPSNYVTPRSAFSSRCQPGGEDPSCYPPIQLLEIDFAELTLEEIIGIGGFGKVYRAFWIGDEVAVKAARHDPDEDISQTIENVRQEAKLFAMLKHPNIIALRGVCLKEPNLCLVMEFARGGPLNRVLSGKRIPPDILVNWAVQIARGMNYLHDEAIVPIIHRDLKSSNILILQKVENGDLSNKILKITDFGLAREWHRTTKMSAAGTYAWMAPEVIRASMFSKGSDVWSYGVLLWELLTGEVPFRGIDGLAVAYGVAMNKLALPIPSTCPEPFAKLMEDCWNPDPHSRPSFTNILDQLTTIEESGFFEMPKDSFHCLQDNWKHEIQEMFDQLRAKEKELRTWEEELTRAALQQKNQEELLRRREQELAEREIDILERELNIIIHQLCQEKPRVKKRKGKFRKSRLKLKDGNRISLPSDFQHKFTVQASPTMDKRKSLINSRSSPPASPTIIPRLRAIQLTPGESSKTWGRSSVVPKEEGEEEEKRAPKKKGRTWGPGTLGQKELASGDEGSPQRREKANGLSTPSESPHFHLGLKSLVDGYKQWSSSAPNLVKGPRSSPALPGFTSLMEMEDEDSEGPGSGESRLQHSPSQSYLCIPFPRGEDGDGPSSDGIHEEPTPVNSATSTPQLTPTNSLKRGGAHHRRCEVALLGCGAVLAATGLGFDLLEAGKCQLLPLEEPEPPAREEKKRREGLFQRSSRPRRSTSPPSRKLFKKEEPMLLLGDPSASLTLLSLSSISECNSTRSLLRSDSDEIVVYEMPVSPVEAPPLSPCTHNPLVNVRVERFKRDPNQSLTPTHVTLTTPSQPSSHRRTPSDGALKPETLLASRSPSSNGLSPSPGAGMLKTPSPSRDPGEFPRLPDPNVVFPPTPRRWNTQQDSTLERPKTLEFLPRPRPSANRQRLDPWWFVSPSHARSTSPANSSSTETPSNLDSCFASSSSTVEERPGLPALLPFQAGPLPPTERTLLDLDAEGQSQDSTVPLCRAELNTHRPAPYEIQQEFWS
T18 sequence (Q8TDX7 whole entry): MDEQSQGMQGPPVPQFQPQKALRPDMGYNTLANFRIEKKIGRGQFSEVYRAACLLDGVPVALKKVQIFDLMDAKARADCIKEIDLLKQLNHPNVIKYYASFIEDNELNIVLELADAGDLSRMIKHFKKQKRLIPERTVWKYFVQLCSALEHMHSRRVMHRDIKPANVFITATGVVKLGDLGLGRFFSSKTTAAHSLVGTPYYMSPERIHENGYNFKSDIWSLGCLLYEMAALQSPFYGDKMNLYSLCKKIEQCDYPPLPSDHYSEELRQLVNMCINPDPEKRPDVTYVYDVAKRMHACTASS
T39 sequence (Q9P1W9 whole entry): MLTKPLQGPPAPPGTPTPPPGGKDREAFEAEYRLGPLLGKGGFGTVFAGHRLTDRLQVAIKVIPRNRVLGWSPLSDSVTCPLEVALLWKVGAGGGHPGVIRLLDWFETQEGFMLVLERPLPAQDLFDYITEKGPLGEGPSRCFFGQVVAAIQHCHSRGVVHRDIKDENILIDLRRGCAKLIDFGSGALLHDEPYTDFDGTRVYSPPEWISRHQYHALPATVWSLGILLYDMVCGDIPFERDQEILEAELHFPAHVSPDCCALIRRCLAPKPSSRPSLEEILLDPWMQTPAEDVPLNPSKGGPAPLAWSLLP
T14 sequence (O43318 1-303 limits assumed): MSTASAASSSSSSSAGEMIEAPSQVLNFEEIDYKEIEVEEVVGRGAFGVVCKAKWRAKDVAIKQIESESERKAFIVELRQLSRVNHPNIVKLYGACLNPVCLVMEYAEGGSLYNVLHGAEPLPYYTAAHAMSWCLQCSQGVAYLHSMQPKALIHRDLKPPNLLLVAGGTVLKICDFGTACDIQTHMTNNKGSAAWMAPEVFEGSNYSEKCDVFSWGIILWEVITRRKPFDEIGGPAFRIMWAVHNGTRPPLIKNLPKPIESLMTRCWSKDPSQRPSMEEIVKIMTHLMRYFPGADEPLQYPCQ
T14 sequence (Q15750 437-504 partner limits assumed): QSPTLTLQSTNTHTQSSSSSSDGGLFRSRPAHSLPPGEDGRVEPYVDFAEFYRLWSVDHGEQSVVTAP

COCCCc1cc(Cl)c(Cl)cc1NC(=O)Nc1c(C)c(-c2cnn(C)c2)nn1-c1ccccc1 [Example 15, 1-(4,5-dichloro-2-(3-methoxypropyl)phenyl)-3-(1′,4-dimethyl-1-phenyl-1H,1′H-[3,4′-bipyrazol]-5-yl)urea]
Avg POC (ALK): 105 POC | Avg POC (CDK5/p35): 110 POC | Avg POC (ERK1): 103.5 POC | Avg POC (IGF-1R Activated): 102 POC | Avg POC (PASK): 188 POC | Avg POC (EphA1): 117 POC | Avg POC (MST3): 137 POC | Avg POC (PAK6): 148 POC | Avg POC (CAMK4): 132 POC | Avg POC (Bmx): 129.5 POC | Avg POC (PKCzeta): 103 POC | Avg POC (MuSK): 100 POC | Avg POC (Rsk4): 105 POC | Avg POC (TAK1): 95 POC | Avg POC (MLK1): 110.5 POC | Avg POC (MKK7beta): 140 POC | Avg POC (RIPK2): 102 POC | Avg POC (NEK7): 142 POC | Avg POC (EphA4): 115 POC | Avg POC (CDK1/cyclinB): 97 POC | Avg POC (Yes): 120.5 POC | Avg POC (IR): 95 POC | Avg POC (IRAK4): 124.5 POC | Avg POC (PKCeta): 105.5 POC | Avg POC (JNK3): 104 POC | Avg POC (eEF-2K): 181 POC | Avg POC (CK1delta): 111.5 POC | Avg POC (PAK5): 132.5 POC | Avg POC (CDK3/cyclinE): 101 POC | Avg POC (GRK7): 115 POC | Avg POC (TNK2): 124 POC | Avg POC (STK33): 104.5 POC | Avg POC (BrSK2): 123 POC | Avg POC (CDK2/cyclinE): 106.5 POC | Avg POC (IGF-1R): 85 POC | Avg POC (Lyn): 84.5 POC | Avg POC (PKCalpha): 104 POC | Avg POC (Flt3): 81 POC | Avg POC (CK1_y): 96.5 POC | Avg POC (Pim-2): 142.5 POC | Avg POC (CDK9/cyclinT1): 112.5 POC
